Measurements: ChEMBL document CHEMBL1201862, “PubChem BioAssay data set” (2004)
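Cells were grown in 96-well plates and exposed to each compound for 48 hours at five concentrations; endpoints were interpolated linearly between bracketing concentrations, or set to the highest concentration if not reached. The concentration for 50% growth inhibition is given as GI50.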 Activity calls are given as the source filed them. Rule as the data show it: active = GI50 up to about 1.1 µM and inactive = higher.

Legend:
Experiment in all cases: NCI-60 cell line screen, 48 h
[1] = test system: NCI-H460
[2] = test system: M14
[3] = test system: UACC-62
[4] = test system: HT-29
[5] = test system: SK-MEL-5
[6] = test system: SF-268
[7] = test system: BT-549
[8] = test system: HCT-15
[9] = test system: A549
[10] = test system: HOP-92
[11] = test system: HL-60
[12] = test system: HCT-116
[13] = test system: 786-0
[14] = test system: MOLT-4
[15] = test system: SR
[16] = test system: CAKI-1
[17] = test system: IGROV-1
[18] = test system: U-251
[19] = test system: OVCAR-3
[20] = test system: PC-3

| Compound | GI50 [1] | GI50 [2] | GI50 [3] | GI50 [4] | GI50 [5] | GI50 [6] | GI50 [7] | GI50 [8] | GI50 [9] | GI50 [10] | GI50 [11] | GI50 [12] | GI50 [13] | GI50 [14] | GI50 [15] | GI50 [16] | GI50 [17] | GI50 [18] | GI50 [19] | GI50 [20] |
| --- | --- | --- | --- | --- | --- | --- | --- | --- | --- | --- | --- | --- | --- | --- | --- | --- | --- | --- | --- | --- |
| O=C1C[C@H](Sc2ccccc2)C2(OCCO2)[C@H]2ON3CCC[C@@H]3[C@@H]12 | 2.92 µM (inactive) | 2.26 µM (inactive) | 1.73 µM (inactive) | 0.759 µM (active) | 7.23 µM (inactive) | 1.65 µM (inactive) | 4.56 µM (inactive) | 0.59 µM | 2.89 µM (inactive) | 1.24 µM (inactive) | 1.06 µM (active) | 0.841 µM (active) | 1.21 µM (inactive) | 0.333 µM (active) | 0.286 µM (active) | 2.29 µM (inactive) | 0.9 µM (active) | 1.88 µM (inactive) | 0.904 µM (active) | 2.48 µM (inactive) |
| O=C(c1ccc(Cl)cc1)N1CCN=C1c1cc2ccccc2c2ccccc12 | 11.5 µM (inactive) | 38.7 µM (inactive) | 14.5 µM (inactive) | 15.8 µM (inactive) | 14.8 µM (inactive) | 16.7 µM (inactive) | 19 µM (inactive) | 16.6 µM | 15.9 µM (inactive) | 11.6 µM (inactive) | 21.8 µM (inactive) | 14.9 µM (inactive) | 16.7 µM (inactive) | 33.7 µM (inactive) | 22.6 µM (inactive) | 15.7 µM (inactive) | 14.3 µM (inactive) | 16.3 µM (inactive) | 17.6 µM (inactive) | 17.1 µM (inactive) |
